# Assay results: ChEMBL document CHEMBL5303573, “Mapping human microbiome drug metabolism by gut bacteria and their genes” (Nature, 2019)
# Tests used:
# [1] = bacteroides fragilis, 12 h, 2 µM
# Description: The drug is tested on Bacteroides fragilis strain: 3397 (T10) for biotransformation. The drug concentrations were measured before and after a 12-h incubation by liquid-chromatography-coupled mass spectrometry (LC–MS)
# [2] = anaerostipes sp., 12 h, 2 µM
# Description: The drug is tested on Anaerostipes sp. strain: fecal isolate for biotransformation. The drug concentrations were measured before and after a 12-h incubation by liquid-chromatography-coupled mass spectrometry (LC–MS)
# [3] = The drug is tested on Bacteroides fragilis strain: HMW615 for biotransformation. The drug concentrations were measured before and after a 12-h incubation by liquid-chromatography-coupled mass spectrometry (LC–MS); conditions: 2 µM
# [4] = The drug is tested on Blautia luti strain: DSM14534 for biotransformation. The drug concentrations were measured before and after a 12-h incubation by liquid-chromatography-coupled mass spectrometry (LC–MS); assay type: ADME; design: dose 2 uM, timepoint 0 vs 12 hours; conditions: 2 µM
# [5] = The drug is tested on Parabacteroides merdae strain: ATCC43184 for biotransformation. The drug concentrations were measured before and after a 12-h incubation by liquid-chromatography-coupled mass spectrometry (LC–MS); conditions: 2 µM
# [6] = The drug is tested on Collinsella intestinalis strain: DSM13280 for biotransformation. The drug concentrations were measured before and after a 12-h incubation by liquid-chromatography-coupled mass spectrometry (LC–MS); conditions: 2 µM
# [7] = The drug is tested on Bacteroides fragilis strain: ATCC43859 for biotransformation. The drug concentrations were measured before and after a 12-h incubation by liquid-chromatography-coupled mass spectrometry (LC–MS); conditions: 2 µM
# [8] = bacteroides fragilis, 12 h, 2 µM; remark: listed apart in the source
# Description: The drug is tested on Bacteroides fragilis strain: NCTC 9343 for biotransformation. The drug concentrations were measured before and after a 12-h incubation by liquid-chromatography-coupled mass spectrometry (LC–MS)
# [9] = The drug is tested on Alistipes indistinctus strain: DSM22520 for biotransformation. The drug concentrations were measured before and after a 12-h incubation by liquid-chromatography-coupled mass spectrometry (LC–MS); conditions: 2 µM
# [10] = The drug is tested on Bacteroides fragilis strain: HMW610 for biotransformation. The drug concentrations were measured before and after a 12-h incubation by liquid-chromatography-coupled mass spectrometry (LC–MS); conditions: 2 µM
# [11] = The drug is tested on Bacteroides dorei strain: DSM17855 for biotransformation. The drug concentrations were measured before and after a 12-h incubation by liquid-chromatography-coupled mass spectrometry (LC–MS); conditions: phocaeicola dorei, 2 µM
# [12] = The drug is tested on Clostridium symbiosum strain: ATCC14940 for biotransformation. The drug concentrations were measured before and after a 12-h incubation by liquid-chromatography-coupled mass spectrometry (LC–MS); conditions: 2 µM
# [13] = The drug is tested on Ruminococcus torques strain: ATCC27756 for biotransformation. The drug concentrations were measured before and after a 12-h incubation by liquid-chromatography-coupled mass spectrometry (LC–MS); assay type: ADME; design: dose 2 uM, timepoint 0 vs 12 hours; conditions: 2 µM
# [14] = The drug is tested on Subdoligranulum variabile strain: DSM15176 for biotransformation. The drug concentrations were measured before and after a 12-h incubation by liquid-chromatography-coupled mass spectrometry (LC–MS); conditions: 2 µM
# [15] = The drug is tested on Bacteroides coprophilus strain: DSM18228 for biotransformation. The drug concentrations were measured before and after a 12-h incubation by liquid-chromatography-coupled mass spectrometry (LC–MS); conditions: 2 µM
# [16] = The drug is tested on Ruminococcus lactaris strain: ATCC29176 for biotransformation. The drug concentrations were measured before and after a 12-h incubation by liquid-chromatography-coupled mass spectrometry (LC–MS); conditions: 2 µM
# [17] = The drug is tested on Clostridium ramosum strain: DSM1402 for biotransformation. The drug concentrations were measured before and after a 12-h incubation by liquid-chromatography-coupled mass spectrometry (LC–MS); conditions: thomasclavelia ramosa, 2 µM
# [18] = The drug is tested on Enterobacter cancerogenus strain: ATCC35316 for biotransformation. The drug concentrations were measured before and after a 12-h incubation by liquid-chromatography-coupled mass spectrometry (LC–MS); conditions: 2 µM
# [19] = The drug is tested on Clostridium sporogenes strain: ATCC15579 for biotransformation. The drug concentrations were measured before and after a 12-h incubation by liquid-chromatography-coupled mass spectrometry (LC–MS); conditions: 2 µM
# [20] = The drug is tested on Bacteroides cellulosilyticus strain: DSM14838 for biotransformation. The drug concentrations were measured before and after a 12-h incubation by liquid-chromatography-coupled mass spectrometry (LC–MS); conditions: 2 µM
Bacterial Biotransformation [1],Bacterial Biotransformation [2],Bacterial Biotransformation [3],Bacterial Biotransformation [4],Bacterial Biotransformation [6],Bacterial Biotransformation [7],Bacterial Biotransformation [8],Bacterial Biotransformation [9],Bacterial Biotransformation [10],Bacterial Biotransformation [11],Bacterial Biotransformation [12],Bacterial Biotransformation [13],Bacterial Biotransformation [14],Bacterial Biotransformation [15],Bacterial Biotransformation [16],Bacterial Biotransformation [17],Bacterial Biotransformation [19],Bacterial Biotransformation [20],Structure (SMILES),Bacterial Biotransformation [5],Bacterial Biotransformation [18]
Compound NOT metabolized,Compound NOT metabolized,Compound NOT metabolized,Compound NOT metabolized,Compound NOT metabolized,Compound NOT metabolized,Compound NOT metabolized,Compound NOT metabolized,Compound NOT metabolized,Compound NOT metabolized,Compound NOT metabolized,Compound NOT metabolized,Compound NOT metabolized,Compound NOT metabolized,Compound NOT metabolized,Compound NOT metabolized,Compound NOT metabolized,,O=C(NCc1ccccc1)OCCO [BURAMATE],Compound NOT metabolized,Compound NOT metabolized
Compound NOT metabolized,Compound NOT metabolized,Compound metabolized,Compound NOT metabolized,Compound NOT metabolized,,Compound metabolized,,Compound metabolized,Compound metabolized,Compound NOT metabolized,Compound NOT metabolized,Compound NOT metabolized,,Compound NOT metabolized,,Compound metabolized,Compound NOT metabolized,C[C@]12CCC(=O)C=C1[C@@H]1C[C@@H]1[C@H]1[C@@H]3[C@@H]4C[C@@H]4[C@@]4(CCC(=O)O4)[C@@]3(C)CC[C@@H]12 [DROSPIRENONE],,
,Compound NOT metabolized,Compound NOT metabolized,,,,Compound metabolized,Compound NOT metabolized,Compound NOT metabolized,Compound metabolized,Compound metabolized,Compound NOT metabolized,Compound NOT metabolized,Compound metabolized,,Compound NOT metabolized,Compound metabolized,Compound metabolized,O=C1N=C([O-])NC1(c1ccccc1)c1ccccc1.[Na+] [PHENYTOIN SODIUM],Compound metabolized,
Compound NOT metabolized,Compound NOT metabolized,,,Compound NOT metabolized,,Compound metabolized,Compound NOT metabolized,,Compound metabolized,Compound NOT metabolized,Compound NOT metabolized,Compound NOT metabolized,Compound NOT metabolized,Compound NOT metabolized,Compound NOT metabolized,Compound NOT metabolized,Compound NOT metabolized,CC(C)c1nc(CN(C)C(=O)N[C@H](C(=O)N[C@@H](Cc2ccccc2)C[C@H](O)[C@H](Cc2ccccc2)NC(=O)OCc2cncs2)C(C)C)cs1 [RITONAVIR],Compound NOT metabolized,
Compound NOT metabolized,Compound NOT metabolized,Compound NOT metabolized,Compound NOT metabolized,Compound NOT metabolized,Compound NOT metabolized,,Compound NOT metabolized,,Compound NOT metabolized,Compound NOT metabolized,Compound NOT metabolized,Compound NOT metabolized,,Compound NOT metabolized,Compound NOT metabolized,Compound NOT metabolized,,c1ccc2[nH]c(-c3cscn3)nc2c1 [THIABENDAZOLE],,Compound NOT metabolized
Compound NOT metabolized,Compound NOT metabolized,,Compound NOT metabolized,Compound NOT metabolized,Compound NOT metabolized,Compound NOT metabolized,,Compound NOT metabolized,Compound metabolized,Compound NOT metabolized,,Compound NOT metabolized,,Compound NOT metabolized,,,Compound NOT metabolized,OC(CCN1CCCCC1)(c1ccccc1)C1CCCCC1 (stereo not drawn) [TRIHEXYPHENIDYL],,

Structure (SMILES),Bacterial Biotransformation [1],Bacterial Biotransformation [2],Bacterial Biotransformation [3],Bacterial Biotransformation [4],Bacterial Biotransformation [6],Bacterial Biotransformation [7],Bacterial Biotransformation [8],Bacterial Biotransformation [9],Bacterial Biotransformation [10],Bacterial Biotransformation [11],Bacterial Biotransformation [12],Bacterial Biotransformation [13],Bacterial Biotransformation [14],Bacterial Biotransformation [15],Bacterial Biotransformation [16],Bacterial Biotransformation [17],Bacterial Biotransformation [19],Bacterial Biotransformation [20],Bacterial Biotransformation [5],Bacterial Biotransformation [18]
CS(=O)(=O)O.OC(CCN1CCCCC1)(c1ccccc1)c1ccccc1 [PRIDINOL METHANESULFONATE],Compound NOT metabolized,Compound NOT metabolized,Compound NOT metabolized,Compound NOT metabolized,Compound NOT metabolized,,Compound NOT metabolized,,Compound NOT metabolized,Compound NOT metabolized,Compound NOT metabolized,Compound NOT metabolized,Compound NOT metabolized,Compound NOT metabolized,Compound NOT metabolized,Compound NOT metabolized,Compound NOT metabolized,Compound NOT metabolized,Compound NOT metabolized,
COc1ccc(C(CN(C)C)C2(O)CCCCC2)cc1 (stereo not drawn) [VENLAFAXINE],Compound NOT metabolized,Compound NOT metabolized,Compound NOT metabolized,Compound NOT metabolized,Compound NOT metabolized,Compound NOT metabolized,Compound NOT metabolized,Compound NOT metabolized,Compound NOT metabolized,Compound NOT metabolized,Compound NOT metabolized,Compound NOT metabolized,Compound NOT metabolized,Compound NOT metabolized,Compound NOT metabolized,Compound NOT metabolized,Compound NOT metabolized,,Compound NOT metabolized,Compound NOT metabolized
C[C@@H](c1ncncc1F)[C@](O)(Cn1cncn1)c1ccc(F)cc1F [VORICONAZOLE],Compound metabolized,Compound NOT metabolized,Compound metabolized,Compound NOT metabolized,Compound NOT metabolized,Compound metabolized,Compound NOT metabolized,Compound NOT metabolized,Compound metabolized,Compound metabolized,Compound NOT metabolized,Compound NOT metabolized,Compound NOT metabolized,,Compound NOT metabolized,Compound NOT metabolized,Compound NOT metabolized,,Compound NOT metabolized,Compound NOT metabolized
